System: Erysiphe [syn. Blumeria] graminis forma specialis. tritici
Experiment: activity against mildew of wheat, 5 day protective application
Type: in vivo
Details: evaluated 7 days after inoculation, Abbot's formula
Experimental: 1% by weight of the emulsifier Uniperol® EL (wetting agent having emulsifying and dispersant action based on ethoxylated alkylphenols) was added to this solution, and the mixture was diluted with water to the desired concentration.
Use example—activity against mildew of wheat caused by Erysiphe [syn. Blumeria] graminis forma specialis. tritici, 5 day protective application
Theor emulsion had been prepared as described above. […] The test plants were then placed in a greenhouse at temperatures between 20 and 24° C. and at 60 to 90% relative atmospheric humidity. After 7 days, the extent of mildew development was determined visually in % infection of the total leaf area
The visually determined percentages of infected leaf areas were converted into efficacies in % of the untreated control:
The efficacy (E) is calculated as follows using Abbot's formula: E=(1-α/β)·100 • α corresponds to the fungal infection of the treated plants in % and • β corresponds to the fungal infection of the untreated (control) plants in %
An efficacy of 0 means that the infection level of the treated plants corresponds to that of the untreated control plants; an efficacy of 100 means that the treated plants were not infected.

[1] = 12.5 ppm active compound in the spray liquor

| Compound | Efficacy in % of the untreated control [1] [%] | Efficacy in % of the untreated control (50 ppm active compound in the spray liquor) [%] | Efficacy in % of the untreated control (25 ppm active compound in the spray liquor) [%] |
| --- | --- | --- | --- |
| CC1CCN(c2c(-c3c(F)cc(F)cc3F)c(Cl)nc3ncnn23)CC1 [I, 5-chloro-7-(4-methylpiperidin-1-yl)-6-(2,4,6-trifluorophenyl)-[1,2,4]triazolo[1,5-a]pyrimidine] | 9 | 35 | – |
| CCCOc1nc2ccc(I)cc2c(=O)n1CCC [II.1-1, proquinazid] | 67 | – | 80 |
